Test results reported in PubChem BioAssay AID248 (DTP/NCI, 2004).
Where “and” joins values, the source holds several entries; their conditions need not be identical. Equal entries are not always repeated. Toxic doses and inconclusive results are not listed. No stated cut-off is given here; in the data, active means T/C of 150% or more; inactive means T/C below 125%.

System: L1210 leukemia ip in BDF1 mice, survival T/C
Assay: NCI In Vivo Anticancer Drug Screen. Data for tumor model L1210 Leukemia (intraperitoneal) in B6D2F1 (BDF1) mice
Settings: endpoint: mean survival time, higher = longer survival
In short: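 Transplanted-tumor mice were given test agent; controls received vehicle only. Survival readings from the two groups were divided (treated over control).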

[1] = dose: 100.0 mg/kg/injection, schedule: Q01DX001 (ip), vehicle: saline
[2] = dose: 100.0 mg/kg/injection, schedule: Q01DX001 (ip), vehicle: Klucel (hydroxypropylcellulose) (HPC)
[3] = dose: 200.0 mg/kg/injection, schedule: Q01DX001 (ip), vehicle: Klucel (hydroxypropylcellulose) (HPC)
[4] = dose: 400.0 mg/kg/injection, schedule: Q01DX001 (ip), vehicle: Klucel (hydroxypropylcellulose) (HPC)
[5] = dose: 100.0 mg/kg/injection, schedule: Q04DX003 (ip), vehicle: saline with Tween-80
[6] = dose: 200.0 mg/kg/injection, schedule: Q04DX003 (ip), vehicle: saline with Tween-80
[7] = dose: 400.0 mg/kg/injection, schedule: Q04DX003 (ip), vehicle: saline with Tween-80
[8] = dose: 100.0 mg/kg/injection, schedule: Q01DX009 (ip), vehicle: saline with Tween-80
[9] = dose: 100.0 mg/kg/injection, schedule: Q01DX009 (ip), vehicle: Klucel (hydroxypropylcellulose) (HPC)
[10] = dose: 100.0 mg/kg/injection, schedule: Q04DX003 (ip), vehicle: Klucel (hydroxypropylcellulose) (HPC)
[11] = dose: 200.0 mg/kg/injection, schedule: Q01DX009 (ip), vehicle: Klucel (hydroxypropylcellulose) (HPC)
[12] = dose: 200.0 mg/kg/injection, schedule: Q04DX003 (ip), vehicle: Klucel (hydroxypropylcellulose) (HPC)
[13] = dose: 400.0 mg/kg/injection, schedule: Q04DX003 (ip), vehicle: Klucel (hydroxypropylcellulose) (HPC)
[14] = dose: 400.0 mg/kg/injection, schedule: Q01DX009 (ip), vehicle: Klucel (hydroxypropylcellulose) (HPC)

Measured: T/C

CC(=O)Oc1ccccc1/C=C\C=O
inactive: [1] 103 % of control | dose: 200.0 mg/kg/injection, schedule: Q01DX001 (ip), vehicle: saline 106 % of control | dose: 400.0 mg/kg/injection, schedule: Q01DX001 (ip), vehicle: saline 105 % of control

CNC(=S)N(C)N=O
inactive: dose: 100.0 mg/kg/injection, schedule: Q01DX Z (ip), vehicle: methylcellulose (MC) 97 % of control | dose: 200.0 mg/kg/injection, schedule: Q01DX Z (ip), vehicle: methylcellulose (MC) 120 % of control

COc1ccc(-n2c(=O)c(N=Nc3ccccc3C)c(O)n(-c3ccccc3Cl)c2=S)cc1
inactive: [2] 107 % of control | [3] 94 % of control | [4] 102 % of control

CC1CC2C3CC(F)C4=CC(=O)C=CC4(C)C3(F)C(O)CC2(C)C1(O)C(=O)COC(=O)C(C)(C)C (stereo not given)
inactive: dose: 100.0 mg/kg/injection, schedule: Q01DX001 (ip), vehicle: steriod suspending solution 106 % of control | dose: 200.0 mg/kg/injection, schedule: Q01DX001 (ip), vehicle: steriod suspending solution 95 % of control | dose: 400.0 mg/kg/injection, schedule: Q01DX001 (ip), vehicle: steriod suspending solution 95 % of control

O=[N+]([O-])c1c(O)cc(O)c2ccccc12
inactive: dose: 5.0 mg/kg/injection, schedule: Q01DX001 (ip), vehicle: saline 102 % of control | dose: 10.0 mg/kg/injection, schedule: Q01DX001 (ip), vehicle: saline 106 % of control | dose: 20.0 mg/kg/injection, schedule: Q01DX001 (ip), vehicle: saline 101 % of control | dose: 40.0 mg/kg/injection, schedule: Q01DX001 (ip), vehicle: saline 102 % of control | dose: 80.0 mg/kg/injection, schedule: Q01DX001 (ip), vehicle: saline 104 % of control

C/C=C1\CN2CCc3c(n(C)c4ccccc34)C2CC1C(=O)OC (stereo not given)
inactive: [5] 101 % of control | [6] 88 % of control | [7] 106 % of control

O=C([S][Pb]([c]1ccccc1)([c]1ccccc1)[c]1ccccc1)c1ccccc1
inactive: dose: 2.0 mg/kg/injection, schedule: Q01DX009 (ip), vehicle: Klucel (hydroxypropylcellulose) (HPC) 109 % of control | dose: 2.0 mg/kg/injection, schedule: Q04DX003 (ip), vehicle: Klucel (hydroxypropylcellulose) (HPC) 89 % of control | dose: 4.0 mg/kg/injection, schedule: Q01DX009 (ip), vehicle: Klucel (hydroxypropylcellulose) (HPC) 123 % of control | dose: 4.0 mg/kg/injection, schedule: Q04DX003 (ip), vehicle: Klucel (hydroxypropylcellulose) (HPC) 97 % of control | dose: 8.0 mg/kg/injection, schedule: Q01DX009 (ip), vehicle: Klucel (hydroxypropylcellulose) (HPC) 90 % of control | dose: 8.0 mg/kg/injection, schedule: Q04DX003 (ip), vehicle: Klucel (hydroxypropylcellulose) (HPC) 94 % of control and 97 % of control | dose: 11.0 mg/kg/injection, schedule: Q04DX003 (ip), vehicle: Klucel (hydroxypropylcellulose) (HPC) 100 % of control

Oc1cccc(C(c2ccccc2)C2CCCCC2)c1 (stereo not given)
inactive: dose: 100.0 mg/kg/injection, schedule: Q01DX001 (ip), vehicle: saline with Tween-80 98 % of control | dose: 200.0 mg/kg/injection, schedule: Q01DX001 (ip), vehicle: saline with Tween-80 88 % of control | dose: 400.0 mg/kg/injection, schedule: Q01DX001 (ip), vehicle: saline with Tween-80 98 % of control

CC(C)(C)c1ccc(N)c([N+](=O)[O-])c1
inactive: dose: 50.0 mg/kg/injection, schedule: Q01DX009 (ip), vehicle: saline with Tween-80 102 % of control | [8] 87 % of control | dose: 200.0 mg/kg/injection, schedule: Q01DX009 (ip), vehicle: saline with Tween-80 102 % of control

C=CCOCC(O)CN(CC(C)C)CC(C)C (stereo not given)
inactive: [9] 112 % of control | [10] 95 % of control | [11] 101 % of control | [12] 88 % of control | [13] 105 % of control

CC(C)(Br)C(=O)c1ccco1
inactive: [8] 95 % of control

CC(=O)c1nnn(-c2ccccc2)n1
inactive: dose: 100.0 mg/kg/injection, schedule: Q01DX001 (ip), vehicle: other 95 % of control and 109 % of control | dose: 200.0 mg/kg/injection, schedule: Q01DX001 (ip), vehicle: other 95 % of control and 101 % of control | dose: 400.0 mg/kg/injection, schedule: Q01DX001 (ip), vehicle: other 101 % of control

S=C(Nc1ccc(Cl)c(Cl)c1)SCc1ccc(Cl)c(Cl)c1
inactive: dose: 15.0 mg/kg/injection, schedule: Q04DX003 (ip), vehicle: saline 97 % of control | dose: 30.0 mg/kg/injection, schedule: Q04DX003 (ip), vehicle: saline 101 % of control | dose: 60.0 mg/kg/injection, schedule: Q04DX003 (ip), vehicle: saline 101 % of control | dose: 100.0 mg/kg/injection, schedule: Q04DX002 (ip), vehicle: saline 88 % of control | dose: 200.0 mg/kg/injection, schedule: Q04DX002 (ip), vehicle: saline 112 % of control | dose: 400.0 mg/kg/injection, schedule: Q04DX002 (ip), vehicle: saline 88 % of control

COc1ccc2c(c1)CCC1=C2CCC2(C)C(=O)OC(=O)C12 (stereo not given)
inactive: [9] 103 % of control | [10] 102 % of control | [11] 97 % of control | [12] 93 % of control | [14] 101 % of control | [13] 111 % of control

O=C(O)c1ccccc1Cc1cccc2c(Cl)cccc12
inactive: [2] 97 % of control | [3] 98 % of control | [4] 101 % of control

O=C1c2ccccc2CCCC1N1CCOCC1 (stereo not given)
inactive: [5] 95 % of control | [6] 94 % of control | [7] 87 % of control

CSc1ncnc2c1nnn2C1OC(CO)C(O)C1O (stereo not given)
inactive: dose: 12.5 mg/kg/injection, schedule: Q01DX001 (ip), vehicle: saline 97 % of control | dose: 25.0 mg/kg/injection, schedule: Q01DX001 (ip), vehicle: saline 103 % of control | dose: 50.0 mg/kg/injection, schedule: Q01DX001 (ip), vehicle: saline 115 % of control | dose: 75.0 mg/kg/injection, schedule: Q01DX001 (ip), vehicle: saline 114 % of control | [1] 110 % of control | dose: 150.0 mg/kg/injection, schedule: Q01DX001 (ip), vehicle: saline 110 % of control

COc1ccc([N+](=O)[O-])cc1NC(=O)N(C1CCCCC1)C1CCCCC1
inactive: dose: 50.0 mg/kg/injection, schedule: Q01DX009 (ip), vehicle: Klucel (hydroxypropylcellulose) (HPC) 96 % of control | [9] 93 % of control | [11] 96 % of control

O=C(Nc1cccc(S(=O)(=O)F)c1)c1ccc(COc2ccc([N+](=O)[O-])cc2Cl)cc1
inactive: dose: 100.0 mg/kg/injection, schedule: Q01DX009 (ip), vehicle: saline sonified 100 % of control | [5] 97 % of control | dose: 200.0 mg/kg/injection, schedule: Q01DX009 (ip), vehicle: saline sonified 100 % of control | [6] 100 % of control | dose: 400.0 mg/kg/injection, schedule: Q01DX009 (ip), vehicle: saline sonified 94 % of control | [7] 94 % of control

Cc1cc(C(N)=O)c(C(N)=O)c(=O)[nH]1
inactive: dose: 75.0 mg/kg/injection, schedule: Q01DX001 (ip), vehicle: water 97 % of control | dose: 150.0 mg/kg/injection, schedule: Q01DX001 (ip), vehicle: water 92 % of control

O=C(O)c1ccc(SCc2ccccc2)cc1
inactive: [9] 103 % of control | [11] 101 % of control | [14] 93 % of control

O=C1CCC(Cc2ccccc2)N1 (stereo not given)
inactive: dose: 100.0 mg/kg/injection, schedule: Q04DX002 (ip), vehicle: saline with Tween-80 97 % of control | dose: 200.0 mg/kg/injection, schedule: Q04DX002 (ip), vehicle: saline with Tween-80 102 % of control | dose: 400.0 mg/kg/injection, schedule: Q04DX002 (ip), vehicle: saline with Tween-80 97 % of control

O=C(Nc1ccc(C(=O)c2ccccc2)cc1)c1ccccc1
inactive: [10] 104 % of control | [12] 108 % of control | [13] 98 % of control
